Read-outs that look alike come from different tables or passages of the source.
Experiments:
Orai1/STIM1 = molecular target: T1, Orai1/STIM1 (Homo sapiens, UniProt Q96D31); assay: Fluorescence-based assay of store-operated calcium entry in Orai1/STIM1 stable cells; assay type: cell-based; conditions: HEK-293 cells stably expressing human STIM1 and Orai1, 50% inhibition of Peak-Basal fluo-4 signal; for IC50: read-out: Orai1/STIM1 (IC50, μmol)
T1 construct: expressed in transfected cells; host or cells: HEK-293
Method: A. Fluorescence-based Assay of Store-Operated Calcium Entry in Orai1/STIM1 Stable Cells.
Cells stably expressing recombinant human STIM1 and Orai1 are generated by transfecting a human Orai1 expression plasmid (pcDNA3.1-Orai1-cmyc) into HEK-293 cells stably overexpressing human STIM1 (Roos et al. 2005 JCB 169(3): 435-445). Colonies of cells stably expressing both STIM1 and Orai1 proteins are selected and then subcloned by limiting dilution. Cells were cultured at 37° C./6% CO2 in complete medium with 10% FBS and appropriate selection markers.
The day prior to performing the assay Orai1/STIM1 stable cells are plated in 50 μL of complete medium at 90-95% confluence in a 384 well plate. Cells are grown at 37° C./6% CO2 overnight. On the day of the assay, 1.5 μM fluo-4-AM (Invitrogen) in complete medium is added to the cells, which are then incubated for 1 hour at RT. Cells are washed once in Ca^2+-free HBSS (Hank's buffered saline solution) and 35 μl of Ca^2+-free HBSS is added to each well. Test compounds are added to wells in a 10 μL Ca^2+-free HBSS solution, prepared at 4.5× the desired final concentration, and incubated for 30 minutes at RT. The initial baseline fluorescence signal is then measured with a FLIPR^384 (Molecular Devices) plate reader. Calcium entry is initiated by adding 5 μl of 10× CaCl2 (10 mM) in HBSS, and changes in cellular fluorescence are measured with the FLIPR^384 plate reader. In each well, the magnitude of the fluorescence signal as a result of calcium entry into the cell is determined by calculating the difference between the peak fluorescence signal measured after calcium addition and the initial baseline fluorescence signal (designated Peak-Basal). IC50 values are typically calculated as the concentration that inhibited 50% of the Peak-Basal signal (Table A).

RBL-2H3 cells = assay: Fluorescence-based assay of store-operated calcium entry in RBL-2H3 cells; assay type: cell-based, rat; set-up: key to RBL-2H3 (IC50, μmol): A < 0.6 μmol; 0.6 μmol ≦ B ≦ 1.2 μmol; C > 1.2 μmol; — = no fit; conditions: thapsigargin store depletion, 50% inhibition of Upslope; for IC50: Rattus norvegicus, RBL-2H3, read-out: RBL-2H3 (IC50, μmol)
Method: B. Fluorescence-based Assay of Store-Operated Calcium Entry in RBL-2H3Cells.
RBL-2H3 cells are obtained from ATCC and maintained in complete medium with 10% FBS at 37° C./6% CO2.
The day prior to performing the assay, RBL-2H3 cells are plated in 50 μL of complete medium in a 384 well plate. Cells are grown at 37° C./6% CO2 overnight and grow to 50-60% confluence by the next day. On the assay day, 1.5 μM Fluo-4-AM dye (Invitrogen) in complete medium is added and incubated for 1 hour at RT. Cells are washed twice in Ca^2+-free HBSS buffer and 35 μL Ca^2+-free HBSS buffer is added to each well. 10 μL of a test compound prepared in a Ca^2+-free HBSS solution at 4.5× of the desired concentration is added to a well and incubated for 5 minutes at RT. 10 μL of thapsigargin prepared in a Ca^2+-free HBSS solution at 5.5× of the desired concentration (5.5 uM) is added to each well and incubated for an additional 25 minutes. The initial baseline fluorescence signal is measured with a FLIPR^384 (Molecular Devices) plate reader. 5 μL of 12× calcium in HBSS (12 mM) is added and changes in cellular fluorescence are measured with the FLIPR^384 plate reader. In each well, the change in the fluorescent signal as a function of time due to calcium entry into the cell is determined by calculating the difference between the fluorescent signal measured 7 seconds after calcium addition and the initial baseline fluorescence signal at time zero (t=0). This parameter is designated Upslope. The IC50 value is calculated as the concentration at which 50% of the Upslope is inhibited.

T1 sequence (Q96D31 whole entry): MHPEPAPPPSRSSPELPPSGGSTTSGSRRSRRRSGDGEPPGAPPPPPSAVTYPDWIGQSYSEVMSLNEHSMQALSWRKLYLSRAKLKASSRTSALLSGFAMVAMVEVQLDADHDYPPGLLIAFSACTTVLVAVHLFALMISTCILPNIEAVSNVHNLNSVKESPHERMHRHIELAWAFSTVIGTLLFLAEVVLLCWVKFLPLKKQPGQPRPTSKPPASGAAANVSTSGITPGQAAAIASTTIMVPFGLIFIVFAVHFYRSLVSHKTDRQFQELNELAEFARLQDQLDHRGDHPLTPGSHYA

| SMILES | IC50 (Orai1/STIM1; Table iii) | IC50 (RBL-2H3 cells; Table iii) | IC50 (Orai1/STIM1; Table iv) | IC50 (RBL-2H3 cells; Table iv) | other results |
| --- | --- | --- | --- | --- | --- |
| Cc1cc2c(cc1-c1ccc(NCc3snnc3F)cc1)OC(F)(F)O2 | 600 to 1200 nM | < 600 nM |  |  |  |
| Cc1cc2c(cc1-c1ccc(NCc3c(F)cccc3F)cc1F)OC(F)(F)O2 | > 1200 nM | < 600 nM |  |  |  |
| Cc1cc2c(cc1-c1ccc(NCc3ccccc3F)cc1F)OC(F)(F)O2 | > 1200 nM | < 600 nM |  |  |  |
| Cc1cc2c(cc1-c1ccc(NCc3c(F)cncc3F)cc1F)OC(F)(F)O2 | 600 to 1200 nM | < 600 nM |  |  |  |
| Cn1nc(C(F)(F)F)cc1-c1ccc(NCc2c(Cl)cnn2C)cc1 | 600 to 1200 nM | < 600 nM |  |  |  |
| Cc1cc(C(F)(F)F)nn1-c1ccc(NCc2ccccc2F)cc1 | < 600 nM | < 600 nM |  |  |  |
| Cc1cc(C(F)(F)F)nn1-c1ccc(NCc2c(F)cccc2F)cc1 | < 600 nM | < 600 nM |  |  |  |
| Cc1cc(C(F)(F)F)nn1-c1ccc(NCc2ccc(F)cc2F)cc1 | 600 to 1200 nM | < 600 nM |  |  |  |
| Cc1cc(C(F)(F)F)nn1-c1ccc(NCc2c(F)cncc2F)cc1 | 600 to 1200 nM | < 600 nM |  |  |  |
| Cc1cc(C(F)(F)F)nn1-c1ccc(NCc2c(F)ccc(F)c2F)cc1 | < 600 nM | < 600 nM |  |  |  |
| Cc1cc(C(F)(F)F)nn1-c1ccc(NCc2c(F)cc(F)cc2F)cc1 | < 600 nM | < 600 nM |  |  |  |
| Cc1nc(C(F)(F)F)cn1-c1ccc(NCc2ccccc2F)cc1F | < 600 nM | < 600 nM |  |  |  |
| Cc1nc(C(F)(F)F)cn1-c1ccc(NCc2c(F)cccc2F)cc1F | < 600 nM | < 600 nM |  |  |  |
| Cn1nc(C(F)(F)F)cc1-c1ccc(NC(=O)c2ccccc2F)c(F)c1 |  |  |  |  | Orai1/STIM1 (IC50, μmol) (Orai1/STIM1; Table iv): Max inh. <50%; RBL-2H3 (IC50, μmol) (RBL-2H3 cells; Table iv): — |
| Cc1nc(C(F)(F)F)cn1-c1ccc(NC(=O)c2c(F)cncc2F)cc1F |  |  | > 1200 nM | 600 to 1200 nM |  |
| Cc1nc(C(F)(F)F)cn1-c1ccc(NC(=O)c2c(F)ccc(F)c2F)cc1F |  |  | > 1200 nM | < 600 nM |  |
| Cc1nc(C(F)(F)F)cn1-c1ccc(NC(=O)c2ccccc2F)cc1 |  |  | 600 to 1200 nM | < 600 nM |  |

| SMILES | IC50 (Orai1/STIM1; Table iii) | IC50 (RBL-2H3 cells; Table iii) | IC50 (Orai1/STIM1; Table iv) | IC50 (RBL-2H3 cells; Table iv) | other results |
| --- | --- | --- | --- | --- | --- |
| Cc1nc(C(F)(F)F)cn1-c1ccc(NC(=O)c2c(F)cccc2F)cc1 |  |  | > 1200 nM | < 600 nM |  |
| Cc1nc(C(F)(F)F)cn1-c1ccc(NC(=O)c2c(F)ccc(F)c2F)cc1 |  |  | > 1200 nM | < 600 nM |  |
| Cc1nn(C(F)F)cc1-c1ccc(NC(=O)c2ccccc2F)cc1 |  |  | 600 to 1200 nM | 600 to 1200 nM |  |
| Cc1nn(C(F)F)cc1-c1ccc(NC(=O)c2c(F)cccc2F)cc1 |  |  | < 600 nM | < 600 nM |  |
| Cc1nn(C(F)F)cc1-c1ccc(NC(=O)c2c(F)cc(F)cc2F)cc1 |  |  | < 600 nM | < 600 nM |  |
| Cc1cccc(F)c1C(=O)Nc1ccc(-c2cn(C(F)F)nc2C)cc1 |  |  | 600 to 1200 nM | < 600 nM |  |
| Cc1nn(C(F)F)cc1-c1ccc(NC(=O)c2c(F)ccc(F)c2F)cc1 |  |  | < 600 nM | < 600 nM |  |
| Cc1ccccc1C(=O)Nc1ccc(-c2cn(C(F)F)nc2C)c(F)c1 |  |  | < 600 nM | 600 to 1200 nM |  |
| Cc1nn(C(F)F)cc1-c1ccc(NC(=O)c2ccccc2F)cc1F |  |  | < 600 nM | 600 to 1200 nM |  |
| Cc1cccc(F)c1C(=O)Nc1ccc(-c2cn(C(F)F)nc2C)c(F)c1 |  |  | < 600 nM | < 600 nM |  |
| Cc1nn(C(F)F)cc1-c1ccc(NC(=O)c2c(F)cccc2F)cc1F |  |  | < 600 nM | < 600 nM |  |
| Cc1nn(C(F)F)cc1-c1ccc(NC(=O)c2c(F)cc(F)cc2F)cc1F |  |  | < 600 nM | < 600 nM |  |
| Cc1ccccc1C(=O)Nc1ccc(-c2nc(C(F)(F)F)sc2C)cc1 |  |  | < 600 nM | < 600 nM |  |
| Cc1sc(C(F)(F)F)nc1-c1ccc(NC(=O)c2ccccc2F)cc1 |  |  | < 600 nM | < 600 nM |  |
| Cc1cccc(F)c1C(=O)Nc1ccc(-c2nc(C(F)(F)F)sc2C)cc1 |  |  | < 600 nM | < 600 nM |  |
| Cc1sc(C(F)(F)F)nc1-c1ccc(NC(=O)c2c(F)cccc2F)cc1 |  |  | < 600 nM | < 600 nM |  |
| Cc1sc(C(F)(F)F)nc1-c1ccc(NC(=O)c2c(F)cc(F)cc2F)cc1 |  |  | < 600 nM | < 600 nM |  |

The next lines start with results.

| IC50 (Orai1/STIM1; Table iii) | IC50 (RBL-2H3 cells; Table iii) | IC50 (Orai1/STIM1; Table iv) | IC50 (RBL-2H3 cells; Table iv) | SMILES | other results |
| --- | --- | --- | --- | --- | --- |
| < 600 nM | < 600 nM |  |  | Cn1nc(C(F)(F)F)cc1-c1ccc(NCc2ccccc2F)cc1F |  |
| < 600 nM | < 600 nM |  |  | Cc1cccc(F)c1CNc1ccc(-c2cc(C(F)(F)F)nn2C)c(F)c1 |  |
| < 600 nM | < 600 nM |  |  | Cn1nc(C(F)(F)F)cc1-c1ccc(NCc2c(F)ccc(F)c2F)cc1F |  |
| < 600 nM | < 600 nM |  |  | Cc1ccccc1CNc1ccc(-c2cc(C(F)(F)F)nn2C)c(F)c1 |  |
| < 600 nM | < 600 nM |  |  | Cn1nc(C(F)(F)F)cc1-c1ccc(NCc2c(F)cc(F)cc2F)cc1 |  |
| < 600 nM | < 600 nM |  |  | Cn1nc(C(F)(F)F)cc1-c1ccc(NCc2c(F)ccc(F)c2F)cc1 |  |
|  |  | < 600 nM | < 600 nM | Cn1nc(C(F)(F)F)cc1-c1ccc(NC(=O)c2c(F)cncc2F)cc1F |  |
|  |  | < 600 nM | < 600 nM | Cn1nc(C(F)(F)F)cc1-c1ccc(NC(=O)c2ccc(F)cc2F)cc1F |  |
|  |  | < 600 nM | < 600 nM | Cn1nc(C(F)(F)F)cc1-c1ccc(NC(=O)c2c(F)cc(F)cc2F)cc1F |  |
|  |  | < 600 nM | < 600 nM | Cn1nc(C(F)(F)F)cc1-c1ccc(NC(=O)c2ccncc2F)cc1F |  |
|  |  | < 600 nM | 600 to 1200 nM | Cn1nc(C(F)(F)F)cc1-c1ccc(NC(=O)c2cncc(F)c2)cc1F |  |
|  |  | 600 to 1200 nM | < 600 nM | Cc1cc(C(F)(F)F)nn1-c1ccc(NC(=O)c2c(F)cc(F)cc2F)cc1 |  |
|  |  | > 1200 nM | < 600 nM | Cc1nc(C(F)(F)F)cn1-c1ccc(NC(=O)c2ccccc2F)cc1F |  |
|  |  | > 1200 nM | 600 to 1200 nM | Cc1nc(C(F)(F)F)cn1-c1ccc(NC(=O)c2c(F)cccc2F)cc1F |  |
|  |  | > 1200 nM | < 600 nM | Cc1nc(C(F)(F)F)cn1-c1ccc(NC(=O)c2c(F)cc(F)cc2F)cc1F |  |
|  |  | > 1200 nM | < 600 nM | Cc1nc(C(F)(F)F)cn1-c1ccc(NC(=O)c2c(F)cc(F)cc2F)cc1 |  |
|  |  | < 600 nM | < 600 nM | CCn1nc(C(F)(F)F)cc1-c1ccc(NC(=O)c2ccccc2F)cc1 |  |
|  |  | < 600 nM | < 600 nM | CCn1nc(C(F)(F)F)cc1-c1ccc(NC(=O)c2c(F)cccc2F)cc1 |  |
|  |  | < 600 nM | < 600 nM | CCn1nc(C(F)(F)F)cc1-c1ccc(NC(=O)c2ccccc2F)cc1F |  |
|  |  | < 600 nM | < 600 nM | CCn1nc(C(F)(F)F)cc1-c1ccc(NC(=O)c2c(F)cccc2F)cc1F |  |
|  |  | < 600 nM | < 600 nM | Cc1cc(F)ccc1C(=O)Nc1ccc(-c2cc(C(F)(F)F)nn2C)c(F)c1 |  |
|  |  | 600 to 1200 nM | < 600 nM | Cc1cc(F)ccc1C(=O)Nc1ccc(-n2nc(C(F)(F)F)cc2C)c(F)c1 |  |
|  |  | > 1200 nM | < 600 nM | Cc1cc(F)ccc1C(=O)Nc1ccc(-n2cc(C(F)(F)F)nc2C)c(F)c1 |  |
|  |  | < 600 nM | < 600 nM | Cc1cc(F)ccc1C(=O)Nc1ccc(-c2cc(C(F)F)nn2C)c(F)c1 |  |
|  |  | 600 to 1200 nM | < 600 nM | CCn1nc(C(F)(F)F)cc1-c1ccc(NC(=O)c2c(F)cc(F)cc2F)cc1F |  |
